Consider 30 substances from patent US20160319277A1, “METHODS OF IMPROVED PROTEIN PRODUCTION USING MIRNAs AND SIRNAs” (THE JOHNS HOPKINS UNIVERSITY, priority 2015, published 2016).

Like-named read-outs stand apart in the source and are kept apart here.

The data set has as its system HEK-CMV-Luc2-Hygro cells. Nature of the data set: High-throughput genome-wide siRNA screen and validation screen for luciferase expression. The format is cell-based, human. The note with it: for per_cell / VIA: Table 3; for per_cell: per cell luciferase yield relative to negative control; for VIA: viable cell density as % of negative control; for Luciferase activity (%) / Per cell luciferase yield (%) / Viable cell number (%): Table 6, polyamine pathway gene siRNAs. The method, then: The Silencer Select™ Human genome siRNA library (Ambion), which targets 21,585 human genes with 3 siRNAs per gene, was used for screening. Each siRNA is arrayed in an individual well (Corning 3570, 384 well, white, solid bottom plates). The transfection was done in duplicates: 0.8 pmol of each siRNA was spotted to a well of a 384-well plate (Corning) and 20 μL of serum-free DMEM containing 0.07 μL of Lipofectamine™ RNAiMax (Life Technologies) was then added to each well. This lipid-siRNA mixture was incubated at ambient temperature for 30 min prior to addition of 4000 cells in 20 μL of DMEM containing 20% FBS (Gibco). After incubating the transfected cells at 37° C. in 5% CO2 for 72 hours, 20 μL of ONE-Glo™ Reagent (Promega) was added to one set of replicates for ‘overall luciferase yield’ quantification and 20 μL of CellTiter-Glo™ Reagent (Promega) was added to the second set of replicates for ‘viable cell density’ measurement. All plates were incubated at room temperature for 20 minutes to stabilize the luminescent signal and the signal was then measured with PerkinElmer Envision 2104 Multilabel™ plate reader.
The 56 genes which got targeted by at least two independent siRNAs (out of three) resulting in enhanced luciferase production with MAD-based z-score>3 from the primary screen were subjected to validation screen using 3 additional Silencer™ siRNAs (Ambion) with different sequences from those used in the primary screen. […] The transfection and assay processes were-the same as the primary genome-wide screen. Data visualization was performed in R computational environment (available on the World Wide Web at R-project.org/) by using ‘hexbin’ and ‘ggplot2’ packages.
The screen generated end-point data for ‘overall luciferase yield’ and ‘viable cell density’ in each well. For each plate, the median value of the negative control wells was set as 100% and was used to normalize corresponding sample wells. The ‘overall luciferase yield’ and ‘viable cell density’ were exported as % of negative control and the median absolute deviation (MAD)-based z-score was calculated for each sample.

Setting [1] is: Table 4, primary screen, 72 h, negative control = 100%.

With “78 (CGGAAUCAAUGAUCCUGUATT; chemistry not given here; listed as Homo sapiens) [compound 78]”, for the setting “primary screen, 72 h”, the per_cell is 212.7 and the VIA was found to be 71.39.

On to “224 (GCAUGUAUCUGCUUGAUAUTT; chemistry not given here; listed as Homo sapiens) [compound 224]”, for which the “Luciferase activity (%)” value is 20.0%, the “Per cell luciferase yield (%)” value is on record as 39.4% and the “Viable cell number (%)” value is 50.7%.

Under “primary screen, 72 h”, “44 (CAACAGAUCAGAGAACAAATT; chemistry not given here; listed as Homo sapiens) [compound 44]” showed a per_cell of 156.4 and a VIA of 92.43.

In the case of “99 (CCCGGAUACUUCUGAAGAATT; chemistry not given here; listed as Homo sapiens) [compound 99]”, under setting [1], the “Viable cell density (%)” value is reported as 75.879% and the “per cell luciferase yield (%)” value was 227.884%.

Turning to “147 (GUUUCGACCUCGAUCCAGATT; chemistry not given here; listed as Homo sapiens) [compound 147]”, under setting [1], the “Viable cell density (%)” value came out at 61.490% and the “per cell luciferase yield (%)” value amounted to 256.085%.

Under “primary screen, 72 h”, “70 (GAUUAUCCUUGUACUUUGATT; chemistry not given here; listed as Homo sapiens) [compound 70]” displayed a per_cell of 141.8 and a VIA of 101.9.

Take “204 (CUCCCGCAGUUGAACAUCATT; chemistry not given here; listed as Homo sapiens) [compound 204]”: under setting [1], the “Viable cell density (%)” value stood at 109.377% and the “per cell luciferase yield (%)” value turned out to be 136.174%.

For “116 (UGGUCUCAAUGACAGUAGATT; chemistry not given here; listed as Homo sapiens) [compound 116]”, under setting [1], the “Viable cell density (%)” value is recorded as 53.645% and the “per cell luciferase yield (%)” value came to 370.824%.

In the case of “93 (CAGCCUCACCAAGCACAAATT; chemistry not given here; listed as Homo sapiens) [compound 93]”, for the setting “primary screen, 72 h”, the per_cell was found to be 167.4 and the VIA amounted to 85.87.

With “211 (GGAUUACAGAAACUCCUAUTT; chemistry not given here; listed as Homo sapiens) [compound 211]”, under setting [1], the “Viable cell density (%)” value was 82.634% and the “per cell luciferase yield (%)” value is listed as 188.258%.

For the substance “196 (ACAGGUCUUUAUCAAAGCATT; chemistry not given here; listed as Homo sapiens) [compound 196]”, under setting [1], the “Viable cell density (%)” value came to 100.201% and the “per cell luciferase yield (%)” value was found to be 153.426%.

For “177 (CUCUUAUGGUAACCAAUGATT; chemistry not given here; listed as Homo sapiens) [compound 177]”, under setting [1], the “Viable cell density (%)” value was found to be 91.558% and the “per cell luciferase yield (%)” value is 160.246%.

Turning to “41 (CAACAGUACUUACCGAUGUTT; chemistry not given here; listed as Homo sapiens) [compound 41]”, for the setting “primary screen, 72 h”, the per_cell stood at 141.8 and the VIA turned out to be 115.5.

For the setting “primary screen, 72 h”, “77 (CAAUGGAACAAUCAAAGUUTT; chemistry not given here; listed as Homo sapiens) [compound 77]” had a per_cell of 180.8 and a VIA of 89.61.

As for “156 (GAUUAUCCUUGUACUUUGATT; chemistry not given here; listed as Homo sapiens) [compound 156]”, the “Luciferase activity (%)” value is 144.5%, the “Per cell luciferase yield (%)” value stood at 141.8% and the “Viable cell number (%)” value is on record as 101.9%. For the same substance, under setting [1], the “Viable cell density (%)” value is given as 101.904% and the “per cell luciferase yield (%)” value was determined as 141.842%.

Under “primary screen, 72 h”, “79 (AAGUCAACAUAGCCCGAAATT; chemistry not given here; listed as Homo sapiens) [compound 79]” yielded a per_cell of 145.7 and a VIA of 111.5.

For “125 (GGAACACUAUGAUGAGUUUTT; chemistry not given here; listed as Homo sapiens) [compound 125]”, under setting [1], the “Viable cell density (%)” value was 63.672% and the “per cell luciferase yield (%)” value was 240.287%.

On to “90 (GGUGCUCUCGGUUGCACAATT; chemistry not given here; listed as Homo sapiens) [compound 90]”, for which, for the setting “primary screen, 72 h”, the per_cell came out at 187.4 and the VIA is on record as 82.33.

On to “122 (AGGGCUAUCUGGUAUCUGUTT; chemistry not given here; listed as Homo sapiens) [compound 122]”, for which the “Viable cell density (%)” value is on record as 54.854%. The “per cell luciferase yield (%)” value under setting [1] was 283.281%.

With “152 (CGAUGUUCGUGGACAUUCUTT; chemistry not given here; listed as Homo sapiens) [compound 152]”, under setting [1], the “Viable cell density (%)” value was found to be 80.013% and the “per cell luciferase yield (%)” value is recorded as 234.608%.

In the case of “53 (GAACAAAAUAGACCUCUUATT; chemistry not given here; listed as Homo sapiens) [compound 53]”, under “primary screen, 72 h”, the per_cell is recorded as 162.7 and the VIA turned out to be 101.9.

As for “214 (CCGUAGACUCGCUCAUCUCTT; chemistry not given here; listed as Homo sapiens) [compound 214]”, the “Luciferase activity (%)” value is recorded as 174.4%, the “Per cell luciferase yield (%)” value is on record as 204.2% and the “Viable cell number (%)” value came to 85.4%.

As to “73 (GUCCGAGUGUGGUUCUGUATT; chemistry not given here; listed as Homo sapiens) [compound 73]”, where the note is “primary screen, 72 h”, the per_cell was 180.4 and the VIA was found to be 85.82.

“210 (CAAUGGAACAAUCAAAGUUTT; chemistry not given here; listed as Homo sapiens) [compound 210]”: under setting [1], the “Viable cell density (%)” value is given as 89.607% and the “per cell luciferase yield (%)” value came out at 180.764%.

With “222 (GACUUUCACUUCCGCCUUATT; chemistry not given here; listed as Homo sapiens) [compound 222]”, the “Luciferase activity (%)” value came out at 74.3%, the “Per cell luciferase yield (%)” value turned out to be 84.7% and the “Viable cell number (%)” value was found to be 87.7%.

Turning to “120 (GGAUCAUGCUAAAAGGAGATT; chemistry not given here; listed as Homo sapiens) [compound 120]”, under setting [1], the “Viable cell density (%)” value is reported as 54.945% and the “per cell luciferase yield (%)” value is recorded as 311.516%.

On to “197 (GACUCAGAGUAACAACGCATT; chemistry not given here; listed as Homo sapiens) [compound 197]”, for which, under setting [1], the “Viable cell density (%)” value is listed as 95.471% and the “per cell luciferase yield (%)” value was 162.372%.

“131 (GGAGAAAGAAUCAACGGAATT; chemistry not given here; listed as Homo sapiens) [compound 131]”: under setting [1], the “Viable cell density (%)” value worked out at 70.586% and the “per cell luciferase yield (%)” value came to 284.565%.

Take “192 (GCAUCUGUCCGAUCGCUCUTT; chemistry not given here; listed as Homo sapiens) [compound 192]”: under setting [1], the “Viable cell density (%)” value is on record as 105.514% and the “per cell luciferase yield (%)” value is reported as 143.889%.

For the setting “primary screen, 72 h”, “45 (GGAUAUUGGAGGCUAGUCATT; chemistry not given here; listed as Homo sapiens) [compound 45]” displayed a per_cell of 157.9 and a VIA of 89.68.
